Measurements: PubChem BioAssay (NCI)
Several values for one entry are separate records, joined by “and”; a condition that tells them apart may be missing. Equal values may be shown once.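 Exposure lasted 48 hours, with cells grown in 96-well plates and compounds tested at five concentrations. GI50 = concentration required for 50% inhibition of growth. TGI marks complete inhibition of growth.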

Legend:
Experiment in all cases: growth of human tumour cells (NCI), 48 h
UACC-257 melanoma = test system: UACC-257 melanoma
HCC-2998 colon = test system: HCC-2998 colon
NCI-H226 lung = test system: NCI-H226 lung
MOLT-4 leukemia = test system: MOLT-4 leukemia
SN12C renal = test system: SN12C renal
SF-268 CNS = test system: SF-268 CNS
SW-620 colon = test system: SW-620 colon
RXF 393 renal = test system: RXF 393 renal
M14 melanoma = test system: M14 melanoma
HOP-92 NSCLC = test system: HOP-92 NSCLC

## CC(C)OP(=O)(O)c1ncc(-c2ccc(C(F)(F)F)cc2)c(NC2CCCCCC2)n1
UACC-257 melanoma
  GI50: > 100 µM
  TGI: > 100 µM
HCC-2998 colon
  GI50: > 100 µM
  TGI: > 100 µM
NCI-H226 lung
  GI50: > 100 µM
  TGI: > 100 µM
MOLT-4 leukemia
  GI50: > 100 µM
  TGI: > 100 µM
SN12C renal
  GI50: > 100 µM
  TGI: > 100 µM
SF-268 CNS
  GI50: > 100 µM
  TGI: > 100 µM
SW-620 colon
  GI50: > 100 µM
  TGI: > 100 µM
RXF 393 renal
  GI50: > 100 µM
  TGI: > 100 µM
M14 melanoma
  GI50: > 100 µM
  TGI: > 100 µM

## C[C@H]1CC[P+](C)(c2ccccc2)C1 (stereo partly drawn)
UACC-257 melanoma
  TGI: > 100 µM
HCC-2998 colon
  TGI: > 100 µM
NCI-H226 lung
  TGI: > 100 µM
MOLT-4 leukemia
  TGI: > 100 µM
SN12C renal
  TGI: > 100 µM
SW-620 colon
  TGI: > 100 µM
RXF 393 renal
  TGI: > 100 µM
M14 melanoma
  TGI: > 100 µM

## O=[N+]([O-])/C=C/c1ccc(Cl)cc1[N+](=O)[O-]
UACC-257 melanoma
  GI50: 11.9 µM
  TGI: 24.9 µM
HCC-2998 colon
  GI50: 1.85 µM
  TGI: 3.41 µM
NCI-H226 lung
  GI50: 2.43 µM
  TGI: 6.96 µM
MOLT-4 leukemia
  GI50: 3.09 µM
  TGI: 12.6 µM
HOP-92 NSCLC
  GI50: 13.2 µM
  TGI: 27.5 µM
SN12C renal
  GI50: 3.08 µM
  TGI: 20.9 µM
SF-268 CNS
  GI50: 3.34 µM
  TGI: > 100 µM
RXF 393 renal
  GI50: 2.36 µM
  TGI: 4.02 µM
M14 melanoma
  GI50: 4.42 µM
  TGI: 16.5 µM

## O=c1cccc(Cl)[nH]1
UACC-257 melanoma
  TGI: > 100 µM
NCI-H226 lung
  TGI: > 100 µM
MOLT-4 leukemia
  TGI: > 100 µM
HOP-92 NSCLC
  TGI: > 100 µM
SN12C renal
  TGI: > 100 µM
SF-268 CNS
  TGI: > 100 µM
SW-620 colon
  TGI: > 100 µM
RXF 393 renal
  TGI: > 100 µM
M14 melanoma
  TGI: > 100 µM

## CN(C)c1ccc(C(O)C2=CC(=O)c3ccccc3C2=O)cc1 (stereo not drawn)
UACC-257 melanoma
  GI50: 18.4 µM
  TGI: 41 µM
HCC-2998 colon
  GI50: 17 µM
  TGI: 38.7 µM
NCI-H226 lung
  GI50: 3.01 µM
  TGI: 14.2 µM
HOP-92 NSCLC
  GI50: 1.56 µM
  TGI: 4.16 µM
SN12C renal
  GI50: 1.56 µM
  TGI: 4.54 µM
SF-268 CNS
  GI50: > 100 µM
  TGI: > 100 µM
RXF 393 renal
  GI50: 4.29 µM
  TGI: 56.6 µM
M14 melanoma
  GI50: 15.4 µM
  TGI: 29.4 µM

## CCCCCCCCCCCCCCCC[n+]1ccccc1
UACC-257 melanoma
  GI50: 0.534 µM and 1.56 µM
  TGI: 1.95 µM and 4.67 µM
HCC-2998 colon
  GI50: 0.339 µM and 0.363 µM
  TGI: 1.43 µM and 1.68 µM
HOP-92 NSCLC
  GI50: 0.21 µM and 0.335 µM
  TGI: 0.753 µM and 1.4 µM
SN12C renal
  GI50: 0.563 µM
  TGI: 1.9 µM
SF-268 CNS
  GI50: 0.452 µM and 0.861 µM
  TGI: 1.71 µM and 2.57 µM
SW-620 colon
  GI50: 0.391 µM and 0.488 µM
  TGI: 1.57 µM and 1.94 µM
RXF 393 renal
  GI50: 0.224 µM
  TGI: 0.688 µM
M14 melanoma
  GI50: 0.28 µM
  TGI: 1.04 µM

## COc1ccc(-c2cc(/C=C/C(=O)c3ccc(N)cc3)[nH]n2)cc1
UACC-257 melanoma
  GI50: 1.9 µM
  TGI: 4.21 µM
HCC-2998 colon
  GI50: 1.83 µM
  TGI: 3.36 µM
NCI-H226 lung
  GI50: 2.05 µM
  TGI: 5.57 µM
MOLT-4 leukemia
  GI50: 2.32 µM
  TGI: 9.48 µM
SN12C renal
  GI50: 1.89 µM
  TGI: 6.63 µM
SF-268 CNS
  GI50: 1.82 µM
  TGI: 5.31 µM
SW-620 colon
  GI50: 1.69 µM
  TGI: 5.41 µM
RXF 393 renal
  GI50: 1.67 µM
  TGI: 4.19 µM
M14 melanoma
  GI50: 2.67 µM
  TGI: 6.54 µM

## Cc1cc(Cl)ccc1NC(=O)C1C(=O)N(c2ccc(Cl)cc2C)C(=O)/C1=N\NC(N)=S (stereo not drawn)
UACC-257 melanoma
  TGI: > 100 µM
HCC-2998 colon
  TGI: 44.5 µM
MOLT-4 leukemia
  TGI: 38 µM
HOP-92 NSCLC
  TGI: 46.6 µM
SN12C renal
  TGI: 96.3 µM
SF-268 CNS
  TGI: > 100 µM
SW-620 colon
  TGI: > 100 µM
RXF 393 renal
  TGI: 54.1 µM
M14 melanoma
  TGI: > 100 µM

## Cn1cnnc1[S-].[Au+].c1ccc([PH+](c2ccccc2)c2ccccc2)cc1
UACC-257 melanoma
  GI50: 1.35 µM
  TGI: 2.94 µM
HCC-2998 colon
  GI50: 1.8 µM
  TGI: 3.23 µM
NCI-H226 lung
  GI50: 2.75 µM
  TGI: 9.08 µM
HOP-92 NSCLC
  GI50: 1.88 µM
  TGI: 3.31 µM
SN12C renal
  GI50: 1.7 µM
  TGI: 3.12 µM
SF-268 CNS
  GI50: 1.7 µM
  TGI: 3.44 µM
RXF 393 renal
  GI50: 1.42 µM
  TGI: 2.8 µM
M14 melanoma
  GI50: 1.4 µM
  TGI: 2.99 µM

## N#CCc1cccc(CC#N)c1Br
UACC-257 melanoma
  TGI: > 100 µM
NCI-H226 lung
  TGI: > 100 µM
MOLT-4 leukemia
  TGI: > 100 µM
HOP-92 NSCLC
  TGI: > 100 µM
SN12C renal
  TGI: > 100 µM
SF-268 CNS
  TGI: > 100 µM
SW-620 colon
  TGI: > 100 µM
RXF 393 renal
  TGI: 93.7 µM
M14 melanoma
  TGI: > 100 µM

## OCCN(CO)CO
UACC-257 melanoma
  TGI: > 100 µM
HCC-2998 colon
  TGI: > 100 µM
NCI-H226 lung
  TGI: > 100 µM
HOP-92 NSCLC
  TGI: > 100 µM
SN12C renal
  TGI: > 100 µM
SF-268 CNS
  TGI: > 100 µM
SW-620 colon
  TGI: > 100 µM
RXF 393 renal
  TGI: > 100 µM
M14 melanoma
  TGI: > 100 µM

## Cc1cc(S(N)(=O)=O)c(S/C(=N\NS(=O)(=O)c2ccccc2)c2ccc(Cl)cc2)cc1Cl
UACC-257 melanoma
  GI50: 54.5 µM
  TGI: > 100 µM
NCI-H226 lung
  GI50: > 100 µM
  TGI: > 100 µM
MOLT-4 leukemia
  GI50: 34.4 µM
  TGI: > 100 µM
HOP-92 NSCLC
  GI50: 30.3 µM
  TGI: 84.9 µM
SN12C renal
  GI50: 46.5 µM
  TGI: > 100 µM
SF-268 CNS
  GI50: > 100 µM
  TGI: > 100 µM
SW-620 colon
  GI50: > 100 µM
  TGI: > 100 µM
M14 melanoma
  GI50: 87.9 µM
  TGI: > 100 µM

## CCc1ccc2c(c1)N(CCO)C1=C(C(=O)OC1)C2c1cc(OC)c(OC)c(OC)c1 (stereo not drawn)
UACC-257 melanoma
  GI50: 0.197 µM
  TGI: > 50 µM
HCC-2998 colon
  GI50: 0.327 µM
  TGI: > 10.3 µM
NCI-H226 lung
  GI50: 0.178 µM
  TGI: 2.44 µM
MOLT-4 leukemia
  GI50: 0.486 µM
  TGI: > 50 µM
HOP-92 NSCLC
  GI50: 0.716 µM
  TGI: > 50 µM
SN12C renal
  GI50: 0.345 µM
  TGI: > 50 µM
SF-268 CNS
  GI50: 0.3 µM
  TGI: > 19.8 µM
SW-620 colon
  GI50: 0.168 µM
  TGI: > 50 µM

## OCC(O)C(O)C(O)c1nn(-c2ccc(F)cc2)c2nc3cc(Cl)c(Cl)cc3nc12 (stereo not drawn)
UACC-257 melanoma
  TGI: 55.1 µM
HCC-2998 colon
  TGI: > 100 µM
NCI-H226 lung
  TGI: 49.4 µM
MOLT-4 leukemia
  TGI: 48.4 µM
SN12C renal
  TGI: 62.4 µM
SF-268 CNS
  TGI: 43.3 µM
SW-620 colon
  TGI: > 100 µM
RXF 393 renal
  TGI: 36.9 µM
M14 melanoma
  TGI: 91.8 µM

## COc1ccc(-c2csc(Nc3cccc(-c4csc(C)n4)c3)n2)cc1
UACC-257 melanoma
  GI50: 3.26 µM
  TGI: 19.7 µM
NCI-H226 lung
  GI50: 6.12 µM
  TGI: 19.7 µM
MOLT-4 leukemia
  GI50: 0.287 µM
  TGI: 7.11 µM
HOP-92 NSCLC
  GI50: 24.7 µM
  TGI: > 50 µM
SN12C renal
  GI50: 0.97 µM
  TGI: 7.96 µM
SF-268 CNS
  GI50: 2.48 µM
  TGI: > 50 µM
SW-620 colon
  GI50: 0.441 µM
  TGI: > 50 µM
RXF 393 renal
  GI50: 1.87 µM
  TGI: > 14.9 µM
M14 melanoma
  GI50: 2.79 µM
  TGI: 14.2 µM

## COc1ccc(C2NC(=S)NC3=C2CCOc2c3ccc3ccccc23)cc1 (stereo not drawn)
UACC-257 melanoma
  GI50: 16.4 µM
  TGI: > 100 µM
NCI-H226 lung
  GI50: 58.5 µM
  TGI: > 100 µM
MOLT-4 leukemia
  GI50: 87.1 µM
  TGI: > 100 µM
HOP-92 NSCLC
  GI50: 77.1 µM
  TGI: > 100 µM
SN12C renal
  GI50: > 100 µM
  TGI: > 100 µM
SF-268 CNS
  GI50: 6.73 µM
  TGI: > 100 µM
SW-620 colon
  GI50: > 100 µM
  TGI: > 100 µM
RXF 393 renal
  GI50: 1.57 µM
  TGI: 48 µM
M14 melanoma
  GI50: > 100 µM
  TGI: > 100 µM
